Measurements from ChEMBL document CHEMBL2086392, “Isomannide derivatives as new class of inhibitors for human kallikrein 7” (Bioorg Med Chem Lett, 2012).

Legend:
[1] = Solubility of the compound in 10% DMSO; assay type: physicochemical
[2] = molecular target: T1, Kallikrein-5 (Homo sapiens, UniProt Q9Y337); test: Inhibition of human recombinant KLK5 expressed in insect cell/baculovirus using Abz-KLYSSKQ-EDDnp as substrate by FRET analysis
T1 sequence (Q9Y337 whole entry): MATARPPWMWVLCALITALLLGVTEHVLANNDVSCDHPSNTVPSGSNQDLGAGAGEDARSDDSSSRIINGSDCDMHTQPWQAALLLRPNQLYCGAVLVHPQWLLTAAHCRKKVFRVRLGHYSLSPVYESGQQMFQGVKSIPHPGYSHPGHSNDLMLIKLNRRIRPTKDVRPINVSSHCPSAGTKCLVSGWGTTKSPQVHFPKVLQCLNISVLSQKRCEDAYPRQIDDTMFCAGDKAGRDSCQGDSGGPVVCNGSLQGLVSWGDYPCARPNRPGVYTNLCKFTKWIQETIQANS

[3] = molecular target: T2, Kallikrein-7 (Homo sapiens, UniProt P49862); test: Inhibition of human recombinant KLK7 expressed in insect cell/baculovirus using Abz-KLYSSKQ-EDDnp as substrate by FRET analysis
[4] = molecular target: T2, Kallikrein-7; test: Competitive inhibition of recombinant human KLK7 expressed in insect cell/baculovirus using Abz-KLYSSKQ-EDDnp as substrate by Dixon plot analysis
[5] = molecular target: T1, Kallikrein-5; test: Competitive inhibition of human KLK5 expressed in insect cell/baculovirus using Abz-KLYSSKQ-EDDnp as substrate by Dixon plot analysis
[6] = Solubility of the compound in aqueous buffer; assay type: physicochemical

T2 sequence (P49862 whole entry): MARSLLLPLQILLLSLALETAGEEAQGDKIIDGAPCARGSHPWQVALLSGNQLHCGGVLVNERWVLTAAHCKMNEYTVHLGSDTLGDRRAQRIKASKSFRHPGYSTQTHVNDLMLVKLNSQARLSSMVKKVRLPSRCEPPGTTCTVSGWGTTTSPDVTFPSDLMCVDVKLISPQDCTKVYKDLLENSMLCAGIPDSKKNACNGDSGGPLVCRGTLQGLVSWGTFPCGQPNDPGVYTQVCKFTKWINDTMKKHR

Compound	solubility [1]	IC50 [2]	IC50 [3]	Ki [4]	Ki [5]	solubility [6]
O=C(N[C@@H]1CO[C@H]2[C@@H]1OC[C@H]2OCc1ccccc1)/C(=C/c1ccccc1)NC(=O)c1ccccc1	Insoluble					
O=C(N[C@@H]1CO[C@H]2[C@@H]1OC[C@H]2OCc1ccccc1)/C(=C/c1cc2ccccc2s1)NC(=O)c1ccccc1	Insoluble					
O=C(N[C@@H]1CO[C@H]2[C@@H]1OC[C@H]2OCc1ccccc1)/C(=C/c1ccc2ccccc2c1)NC(=O)c1ccccc1	Insoluble					
O=C(N[C@@H]1CO[C@H]2[C@@H]1OC[C@H]2OCc1ccccc1)/C(=C/c1cc2ccccc2o1)NC(=O)c1ccccc1	Insoluble					
O=C(N[C@@H]1CO[C@H]2[C@@H]1OC[C@H]2OCc1ccccc1)/C(=C/c1ccc(F)cc1)NC(=O)c1ccccc1 (stereo in doubt)	Insoluble					
O=C(N[C@@H]1CO[C@H]2[C@@H]1OC[C@H]2OCc1ccccc1)/C(=C/c1ccc(Cl)cc1)NC(=O)c1ccccc1 (stereo in doubt)	Insoluble					
O=C(N[C@@H]1CO[C@H]2[C@@H]1OC[C@H]2OCc1ccccc1)/C(=C/c1ccc(Br)cc1)NC(=O)c1ccccc1 (stereo in doubt)	Insoluble					
O=C(N[C@@H]1CO[C@H]2[C@@H]1OC[C@H]2OCc1ccccc1)/C(=C/c1ccc(C(F)(F)F)cc1)NC(=O)c1ccccc1 (stereo in doubt)	Insoluble					
COc1ccc(/C=C(\NC(=O)c2ccccc2)C(=O)N[C@@H]2CO[C@H]3[C@@H]2OC[C@H]3OCc2ccccc2)cc1 (stereo in doubt)	Insoluble					
O=C(N[C@@H]1CO[C@H]2[C@@H]1OC[C@H]2OCc1ccccc1)/C(=C/c1cccs1)NC(=O)c1ccccc1 (stereo in doubt)		99.2 µM	13.3 µM	1.8 µM	70.7 µM	soluble
O=C(N[C@@H]1CO[C@H]2[C@@H]1OC[C@H]2OCc1ccccc1)/C(=C/c1ccc2c(c1)OCO2)NC(=O)c1ccccc1 (stereo in doubt)		> 1000 µM	205 µM	80.3 µM	357 µM	soluble
O=C(N[C@@H]1CO[C@H]2[C@@H]1OC[C@H]2OCc1ccccc1)/C(=C/c1cccnc1)NC(=O)c1ccccc1 (stereo in doubt)		324 µM	196 µM	75.1 µM	200 µM	soluble
O=C(N[C@@H]1CO[C@H]2[C@@H]1OC[C@H]2OCc1ccccc1)/C(=C/c1ccco1)NC(=O)c1ccccc1 (stereo in doubt)		99.1 µM	16.3 µM	3 µM	70.4 µM	soluble
CC(=O)N/C(=C\c1cccs1)C(=O)N[C@@H]1CO[C@H]2[C@@H]1OC[C@H]2OCc1ccccc1 (stereo in doubt)		101 µM	161 µM	77.4 µM	71.9 µM	soluble
O=C(N[C@@H]1CO[C@H]2[C@@H]1OC[C@H]2OCc1ccccc1)/C(=C/c1c[nH]c2ccccc12)NC(=O)c1ccccc1 (stereo in doubt)	Insoluble					
